From patent US20240197767A1, “COMBINATION OF ZIDOVUDINE WITH A TETRACYCLINE ANTIBIOTIC” (Helperby Therapeutics Limited, priority 2019, published 2024)

Key:
Assay in all cases: Chequerboard MIC/synergy testing of zidovudine and doxycycline, log phase bacteria
Format in all cases: cell-based
[1] = test system: NCTC13443 NDM-1 Klebsiella pneumoniae; conditions: strain NCTC13443, doxycycline alone
Protocol: (§1) Synergy in the context of antimicrobial drugs is measured in a number of ways that conform to the generally accepted opinion that “synergy is an effect greater than additive”. One of the ways to assess whether synergy has been observed is to use the “chequerboard” technique. This is a well-accepted method that leads to the generation of a value called the fractional inhibitory concentration index (FICI). Orhan et al., J. Clin. Microbiol. 2005, 43(1):140 describes the chequerboard method and analysis in the paragraph bridging pages 140-141, and explains that the FICI value is a ratio of the sum of the MIC (Minimum Inhibitory Concentration) level of each individual component alone and in the mixture. The combination is considered synergistic when the ΣFIC is ≤0.5, indifferent when the ΣFIC is >0.5 but <4.0, and antagonistic when the ΣFIC is >4.0.
(§2) The chequerboard method used in Example 1 followed the protocols detailed in Antimicrob Chemo (2013) 68, 374-384. Zidovudine and doxycycline were obtained from commercially available sources. The bacteria used were BAA2469 NDM-1 Escherichia coli, BAA2470 NDM-1 Klebsiella pneumoniae, BAA2471 NDM-1 Escherichia coli, BAA2472 NDM-1 Klebsiella pneumoniae, and NCTC13443 NDM-1 Klebsiella pneumoniae. All strains were obtained from a commercial source and log phase growth of the bacteria was carried out using methods known in the art.
(§3) The effects of the combination of the present invention were examined by calculating the fractional inhibitory concentration index (FICI) of each combination, as follows:
(§4) (MIC of drug A,tested in combination)/(MIC of drug A,tested alone)+(MIC of drug B,tested in combination)/(MIC of drug B,tested alone).
(§5) The interaction of the combination was defined as showing synergy if the FICI was […], no interaction if the FICI was >0.5 but <4.0 and antagonism if the FICI was >4.0.

[2] = test system: BAA2469 NDM-1 Escherichia coli; conditions: strain BAA2469, doxycycline alone
Protocol: as §1, §2, §3, §4, §5

[3] = test system: BAA2472 NDM-1 Klebsiella pneumoniae; conditions: BAA2472, read-out: MIC Doxycycline
Protocol: as §1, §2, §3, §4, §5

[4] = test system: BAA2471 NDM-1 Escherichia coli; conditions: BAA2471, read-out: MIC Doxycycline
Protocol: as §1, §2, §3, §4, §5

[5] = test system: BAA2470 NDM-1 Klebsiella pneumoniae; conditions: strain BAA2470, doxycycline alone
Protocol: as §1, §2, §3, §4, §5

Which MIC [1] does the source give for `C[C@H]1c2cccc(O)c2C(=O)C2=C(O)[C@]3(O)C(=O)C(C(N)=O)=C(O)[C@@H](N(C)C)[C@@H]3[C@@H](O)[C@@H]21` [Doxycycline, (4S,4aR,5S,5aR,6R,12aR)-4-(dimethylamino)-1,5,10,11,12a-pentahydroxy-6-methyl-3,12-dioxo-4a,5,5a,6-tetrahydro-4H-tetracene-2-carboxamide] here?
The MIC was 32 µg/mL.

And the MIC [2]?
Its MIC is 64 µg/mL.

And the MIC [3]?
Its MIC is 16 µg/mL.

And the MIC [4]?
Its MIC is 32 µg/mL.

And the MIC [5]?
Its MIC is 64 µg/mL.
